Test system: A. nidulans, C. albicans, C. albicans 95-158 Flu-R, Cryp. neomormans, Candida krusei, and C. glabrata
Assay: Fungicidal test, viability of treated fungal cells spotted on YPD agar
Format: cell-based
Details: after 72 h exposure

Row | SMILES | resistance in treated fungi
1 | C=C1CC[C@H]2C(C)(C)CCC[C@]2(C)[C@H]1CO [Albicanol, (+)-albicanol] | not observed
2 | CC1=CC[C@H]2C(C)(C)CCC[C@]2(C)[C@H]1CO [drimenol, (−)-drimenol] | not observed
